The results in this text go back to US10907159B2, “Methods of treating cancer by inhibition of DNA repair proteins using antisense based therapies” (SARISSA INC., priority 2015, dated 2021).

In the data set the test system is HK-2 kidney proximal tubule epithelial cells. Put plainly: Cell proliferation assay, ASO transfection then drug (cell counting). The data set is classed as cell-based, human. As to conditions: FIG. 52. As to the method:
FIG. […] Proliferation was determined by cell counting 96 hours post-transfection (*p<0.05).
Four hours post-transfection, cells were seeded into 6 well dishes in appropriate experimental groups. […] Ninety-six hours post transfection, cells were collected and counted (Coulter Particle Counter). Proliferation was determined based on initial cell density and calculated as a percentage of ASO+vehicle treated cells.

“5′-guaucuCTTGACGTuccuua-3′ (GUAUCUCTTGACGTUCCUUA; gapmer, lower-case wings modified, type not given here) [BR1]”: the “effect on antiproliferative activity of cisplatin” value is “no effect on the antiproliferative activity of cisplatin”.
